Reference: US9708628B2, “Cationic lipid having improved intracellular kinetics” (NOF CORPORATION, priority 2011, dated 2017)

Columns and labels:
[1] = Particle size and surface potential of siRNA MENDs prepared by t-BuOH injecting method; assay type: physicochemical; conditions: siRNA MEND, cationic lipid/cholesterol=70/30, DMG-PEG2000 3%
Protocol: A lipid solution in t-BuOH with a composition of cationic lipid/cholesterol=70/30, DMG-PEG2000 3% and a total lipid amount of 3000 nmol/400 μL (7.5 mM) was prepared in a 1.7 mL tube. In a separate 1.7 mL tube, an siRNA solution was prepared by mixing an siRNA aqueous solution containing siRNA (160 μg) and 20 mM malate buffer (pH 4.00, 30 mM NaCl) to total 50 μL. With vigorous stirring of the lipid solution, the siRNA solution was gradually added dropwise, and the mixed solution was taken in a 1 mL syringe. Then, 20 mM malate buffer (pH 4.00, 30 mM NaCl, 2 mL) was added into a 5 mL tube, and the mixed solution was gradually injected with vigorous stirring. Thereafter, the mixture was further diluted with PBS (7 mL) and centrifuged at 1000 g, 30° C. for 10 min in Amicon Ultra-15-100K to a volume of less than 1.5 mL. PBS (15 mL) was added, and the solution was centrifuged again to about 500-1000 μL. Finally, the MEND solution was adjusted by diluting with PBS to the object lipid concentration.
The particle size and surface potential of various MENDs were measured according to the method described in [Experimental Example 2] and the results are shown in Table 6.

IFN-γ = assay: Cytokine production by MEND administration, IFN-γ (ELISA); assay type: in vivo, ICR mice; conditions: pCpGfree-Luc(0), 40 μg DNA
Protocol: MENDs used in [Experimental Example 12] were each administered to 5-week-old male ICR mice from the tail vein in an amount corresponding to 40 μg DNA. 1, 3, 6, 24 hr later, the blood was collected from the heart, and TNF-α, IFN-γ, IL-12p70 were measured using Quantikine ELISA kit (R&D Systems).

liver = assay: Intrahepatic behavior of MEND (intravital confocal microscopy); assay type: in vivo, ICR mice; conditions: Rhodamine-DOPE labeled MEND, 40 μg DNA/mouse, about 10 min filming
Protocol: Rhodamine-DOPE was added to R8/GALA-MEND in an amount of 0.1% of the total lipid concentration, and to B-2 MEND in an amount of 1% of the total lipid concentration. 50 mg/mL Sodium pentobarbital (Nacalai Tesque) was diluted 5-fold with saline and intraperitoneally administered to ICR mice (5-week-old male) for anesthesia. Griffonia simplicifolia Lectin I-B4 Isolectin, FITC Conjugate (VECTOR Laboratories, about 80 μL) was administered to the mice under anesthesia from the tail vein to stain the vascular endothelial cells. […] A winged intravenous indwelling needle connected with an extension tube filled with the MEND solution was indwelled in the tail vein of the mouse. To prevent dislocation of the observation site due to the heart beat of the mouse, a device for fixing the liver by adsorption (Shimizu K et al., J Biosci Bioeng. 112(5): 508-10) was used, and the mouse was observed using a confocal microscope (Nikon A1) with a 60-fold water immersion lens.

Row | Structure (SMILES) | PDI [1] | size (nm) [1] | zeta (mV) [1] | IFN-γ blood concentration (IFN-γ) | behavior in liver blood vessels (liver)
1 | Cc1c(C)c2c(c(C)c1OC(=O)CCC(=O)OCCCN(C)CCSSCCN(C)CCCOC(=O)CCC(=O)Oc1c(C)c(C)c3c(c1C)CCC(C)(CCCC(C)CCCC(C)CCCC(C)C)O3)CCC(C)(CCCC(C)CCCC(C)CCCC(C)C)O2 (centres unmarked) [Example B-2-5] | 0.076 | 110 nm | −9.5 mV | – | –
2 | CCCCCCCCCCCCCC(=O)OCCCN(C)CCSSCCN(C)CCCOC(=O)CCCCCCCCCCCCC [Example B-2] | – | – | – | maintained the normal value at any time point | coagulation was not formed and the MEND uniformly flows through the blood vessels
